# Data from paper PMC9024597, “The Biological Fate of a Novel Anticancer Drug Candidate TNBG-5602: Metabolic Profile, Interaction with CYP450, and Pharmacokinetics in Rats” (Molecules, 2022).
# pIC50: −log10 of the molar value.
# Columns and labels:
# CYP3A4 = molecular target: T1, CYP3A4 (Homo sapiens, UniProt P08684); test: IC50 assessment using recombinant human CYPs (probe testosterone); assay type: in vitro ADME; settings: recombinant CYP 0.025 μM, testosterone 0.05 mg mL^−1, 37 °C, 30 min, n = 3; read-out: IC50 against CYP3A4
# T1 construct: purchased IPHASE
# T1 sequence (P08684 whole entry): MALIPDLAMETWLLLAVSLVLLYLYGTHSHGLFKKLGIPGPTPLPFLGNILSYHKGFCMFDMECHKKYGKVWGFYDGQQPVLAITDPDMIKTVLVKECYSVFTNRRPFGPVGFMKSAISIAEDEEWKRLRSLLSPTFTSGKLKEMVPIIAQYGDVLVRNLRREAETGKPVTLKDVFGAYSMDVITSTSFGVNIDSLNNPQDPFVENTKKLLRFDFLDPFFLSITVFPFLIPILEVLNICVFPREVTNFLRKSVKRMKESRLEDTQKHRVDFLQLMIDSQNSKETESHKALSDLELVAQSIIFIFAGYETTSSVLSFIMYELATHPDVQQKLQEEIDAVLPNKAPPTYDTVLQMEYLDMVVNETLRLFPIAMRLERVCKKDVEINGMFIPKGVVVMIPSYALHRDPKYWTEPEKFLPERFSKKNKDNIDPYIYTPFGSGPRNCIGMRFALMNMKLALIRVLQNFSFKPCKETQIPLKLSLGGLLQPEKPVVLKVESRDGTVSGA
# Protocol: Figure 12 The inhibition curves for TNBG-5602 against cytochrome enzymes (mean ± SD, n = 3). TNBG-5602 (final concentrations of 0, 0.01, 0.1, 1.0, 10.0, and 100 μM) was incubated with recombinant cytochrome P450s (final concentration 0.025 μM) and the specific probe substates (final concentration 0.05 mg mL^−1) with NADPH to initiate the metabolic reaction. The incubations were carried out at 37 °C for 30 min with a total volume of 200 μL. The CYP isoforms tested were 2D6 (dextromethorphan), 2C9 (tolbutamide), and 3A4 (testosterone). […] The IC50 values were calculated using the GraphPad Prism statistical software (Version 8) by nonlinear regression analysis.
# The LC-MS/MS instrument was the same as the system used to determine TNBG-5602. The mobile phase consisted of 0.1% formic acid, aqueous solution (Solvent A), and acetonitrile (Solvent B) at a flow rate of 0.3 mL min^−1. […]
# For IC50 assessment, the inhibition curves were established by nonlinear regression analysis plotting the relative activity (y) versus the logarithm of the TNBG-5602 concentration (x). The inhibition curve and the half-maximal inhibitory concentration of TNBG-5602 against each CYP isoform were analyzed using the GraphPad Prism statistical software (version 8). […]
# [1] = Pharmacokinetics in rats after a single intravenous administration
# Protocol: Sample separation was carried out on a CSH C18 Column (3.0 × 75 mm, 1.7 μm). The mobile phase consisted of Eluent A (0.1% aqueous formic acid) and Eluent B (acetonitrile: methanol, 80:20, v/v) at a flow rate of 0.4 mL min^−1. […] The column temperature was set to 35 °C. The injection volume was 5 μL. The optimized spectrometric parameters were set as follows: a capillary voltage of 4 kV, gas temperature of 300 °C, gas flow rate of 5 L min^−1, nebulizer of 45 Psi, sheath gas temperature of 250 °C, and sheath gas flow rate of 10 L min^−1. The UPLC-MS/MS data were acquired and processed using the Mass Hunter MS Optimizer software (version B.07.00). Detection was performed under multiple reaction monitoring (MRM) mode with the positive-ion electrospray-ionization (ESI) mode.
# For the pharmacokinetic analyses, five rats were administered at a dose of 4.8 mg kg^−1 body weight via the caudal vein.
# The whole blood samples were immediately centrifuged at 13,000 rpm for 5 min upon collection, and the supernatants were stored at −80 °C until analysis.
# Obtained plasma (50 μL) was thawed and spiked with 50 μL of the IS working solution (50 ng mL^−1). The mixture was deproteinized and extracted using 1 mL of acetonitrile by using a vortex for 2 min.
# [2] = system: five human cancer cell lines; parameters: method as in PMID 35541052; settings: cited from earlier work
# liver cancer cells = system: liver cancer cells; parameters: method as in PMID 31446646; settings: cited from earlier work
# cancer cells and tissues = system: cancer cells and tissues; parameters: method as in PMID 31446646; settings: oil red O staining; cited from earlier work
# [3] = rats, i.v. 4.8 mg kg^−1, non-compartment model, mean, n = 5
# [4] = rats, i.v. 4.8 mg kg^−1, two-compartment model, mean, n = 5
smiles,measurement,setting,value
CN(C)CCN1CC2c3ccccc3CCN2c2nc3ccccc3nc21 (centres unmarked) [TNBG-5602],pIC50,CYP3A4,4.73
same,k el,"[1]; rat, in vivo, iv, 4.8 mg/kg",6.67e-05 s⁻¹
same,half-life,"[1]; rat, plasma, iv, 4.8 mg kg^−1, half-life, rats",~12 h
same,Cmax,"[1]; rat, plasma, iv, 4.8 mg/kg",171 ng/mL
same,MRT inf,"[1]; rat, plasma, iv, 4.8 mg/kg",15.5 h
same,MRT last,"[1]; rat, plasma, iv, 4.8 mg/kg",7.13 h
same,Vd,"[1]; rat, plasma, iv, 4.8 mg/kg",20.2 L
same,clearance,"[1]; rat, plasma, iv, 4.8 mg/kg, CL (clearance), rats, i.v. 4.8 mg kg^−1, two-compartment model, mean, n = 5",22 mL/min
same,clearance,"[1]; rat, plasma, iv, 4.8 mg/kg, CLt (total body clearance), rats, i.v. 4.8 mg kg^−1, non-compartment model, mean, n = 5",19 mL/min
same,Tmax,"[1]; rat, plasma, iv, 4.8 mg/kg, Tmax, rats, i.v. 4.8 mg kg^−1, non-compartment model, mean, n = 5",≤ 5 min
same,half-life,"[1]; rat, plasma, iv, 4.8 mg/kg, t1/2, rats, i.v. 4.8 mg kg^−1, non-compartment model, mean, n = 5",11.6 h
same,half-life,"[1]; rat, plasma, iv, 4.8 mg/kg, t1/2β (elimination half-life), rats, i.v. 4.8 mg kg^−1, two-compartment model, mean, n = 5",11.8 h
same,AUC(0–t),[1]; [3],45513 µg·min/L
same,AUC(0–∞),[1]; [3],56248 µg·min/L
same,t1/2,[1]; [3],11.56 h
same,A (zero-time intercept of the α distribution phase),[1]; [4],127.2 µg/L
same,B (zero-time intercept of the elimination phase),[1]; [4],57.6 µg/L
same,K12 (transfer rate constant central to peripheral compartment),[1]; [4],0.028 min⁻¹
same,K21 (transfer rate constant peripheral to central compartment),[1]; [4],0.019 min⁻¹
same,Vc (apparent volume of the central compartment),[1]; [4],6.985 L
same,Vp (apparent volume of the peripheral compartment),[1]; [4],13.2 L
same,t1/2α,[1]; [4],0.457 h
same,distribution volume of the peripheral compartment relative to the central compartment,"[1]; rats, i.v., two-compartment model",1.88 fold
same,in vivo clearance as % liver blood flow in rats,"[1]; rats, i.v., liver blood flow ref 19",200%
same,apparent volume of distribution relative to total body water in rats,"[1]; rats, i.v., total body water ref 19",approximately 155 fold
same,apparent clearance rate from the central compartment to the peripheral compartment,"[1]; rats, single i.v. administration",0.028 ± 0.033 L/min
same,inhibitory activity against five human cancer cell lines,[2],strong inhibitory activity
same,inhibition of proliferation of liver cancer cells in vitro,liver cancer cells,effectively inhibited the proliferation
same,lipid accumulation in cancer cells and tissues,cancer cells and tissues,selectively cause lipid accumulation
